Measurements reported in patent publication US9212182B2, “Bicyclic sulfonamide compounds as sodium channel inhibitors” (AMGEN INC., priority 2013, dated 2015).
Read-outs that look alike come from different tables or passages of the source.

Target: Nav 1.7 (Homo sapiens (Human), UniProt Q15858)
Assay: in-vitro Nav 1.7 PX (IC50)
Assay type: cell-based

Chain of Nav 1.7 (Q15858 whole entry): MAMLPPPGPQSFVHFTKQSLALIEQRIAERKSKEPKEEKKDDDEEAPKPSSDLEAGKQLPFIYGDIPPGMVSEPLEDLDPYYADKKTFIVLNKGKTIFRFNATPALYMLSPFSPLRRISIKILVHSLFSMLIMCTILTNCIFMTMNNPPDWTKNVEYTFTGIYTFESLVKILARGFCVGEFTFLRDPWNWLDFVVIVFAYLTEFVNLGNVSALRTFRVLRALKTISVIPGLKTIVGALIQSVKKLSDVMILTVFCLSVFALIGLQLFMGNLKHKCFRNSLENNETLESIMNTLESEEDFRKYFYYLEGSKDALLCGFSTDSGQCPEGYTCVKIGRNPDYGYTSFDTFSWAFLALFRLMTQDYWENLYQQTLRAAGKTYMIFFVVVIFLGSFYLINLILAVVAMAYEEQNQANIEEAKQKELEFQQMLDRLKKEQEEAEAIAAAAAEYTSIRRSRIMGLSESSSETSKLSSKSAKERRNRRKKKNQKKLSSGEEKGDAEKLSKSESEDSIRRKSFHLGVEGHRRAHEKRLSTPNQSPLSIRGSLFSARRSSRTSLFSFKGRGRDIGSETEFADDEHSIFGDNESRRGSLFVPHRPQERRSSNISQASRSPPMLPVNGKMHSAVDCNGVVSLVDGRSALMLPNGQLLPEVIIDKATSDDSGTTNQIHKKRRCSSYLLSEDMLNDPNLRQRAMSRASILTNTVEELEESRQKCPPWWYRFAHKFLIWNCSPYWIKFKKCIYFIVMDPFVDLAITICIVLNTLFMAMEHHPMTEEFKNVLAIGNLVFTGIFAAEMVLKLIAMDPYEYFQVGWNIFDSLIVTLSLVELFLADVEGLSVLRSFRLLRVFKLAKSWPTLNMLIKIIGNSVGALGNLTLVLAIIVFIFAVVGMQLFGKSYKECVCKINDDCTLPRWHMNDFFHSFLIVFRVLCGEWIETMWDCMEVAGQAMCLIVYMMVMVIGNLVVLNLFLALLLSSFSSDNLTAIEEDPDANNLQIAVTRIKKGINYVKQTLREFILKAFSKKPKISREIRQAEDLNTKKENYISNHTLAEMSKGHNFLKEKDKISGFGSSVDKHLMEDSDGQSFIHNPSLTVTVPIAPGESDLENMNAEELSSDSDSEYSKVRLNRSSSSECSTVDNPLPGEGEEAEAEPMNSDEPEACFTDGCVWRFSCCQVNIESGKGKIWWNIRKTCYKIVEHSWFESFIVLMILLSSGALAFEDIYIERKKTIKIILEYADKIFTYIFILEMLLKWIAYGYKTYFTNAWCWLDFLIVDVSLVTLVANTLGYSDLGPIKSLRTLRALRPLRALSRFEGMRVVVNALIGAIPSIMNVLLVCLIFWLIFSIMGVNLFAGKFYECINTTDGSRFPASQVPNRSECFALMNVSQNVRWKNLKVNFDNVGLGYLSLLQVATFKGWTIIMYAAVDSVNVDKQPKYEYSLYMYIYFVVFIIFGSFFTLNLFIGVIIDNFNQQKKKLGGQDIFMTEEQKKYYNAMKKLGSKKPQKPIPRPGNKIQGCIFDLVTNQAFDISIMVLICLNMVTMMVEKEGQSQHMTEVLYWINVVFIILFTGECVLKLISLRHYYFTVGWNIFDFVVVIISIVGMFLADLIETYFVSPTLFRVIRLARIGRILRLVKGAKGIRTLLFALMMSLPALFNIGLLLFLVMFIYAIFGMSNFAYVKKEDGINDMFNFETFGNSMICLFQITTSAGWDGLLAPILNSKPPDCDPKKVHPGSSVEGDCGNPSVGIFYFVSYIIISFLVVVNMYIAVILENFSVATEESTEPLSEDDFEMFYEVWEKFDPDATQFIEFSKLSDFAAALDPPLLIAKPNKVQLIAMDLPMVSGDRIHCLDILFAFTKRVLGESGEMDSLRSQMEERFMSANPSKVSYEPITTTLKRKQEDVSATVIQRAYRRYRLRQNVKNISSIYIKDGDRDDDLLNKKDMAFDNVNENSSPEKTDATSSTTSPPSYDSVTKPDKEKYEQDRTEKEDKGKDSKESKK

Structure (SMILES) | IC50 (in-vitro Nav 1.7 PX data) [nM] | also measured
COc1cc(-c2cccc(C)c2)ccc1-n1c(=O)ccc2cc(S(=O)(=O)Nc3ncco3)ccc21 [Example 1113, 1-(3-methoxy-3′-methyl-4-biphenylyl)-N-1,3-oxazol-2-yl-2-oxo-1,2-dihydro-6-quinolinesulfonamide] | 44 | 
COc1cc(-c2ccc(Cl)c(C)c2)c(Cl)cc1-n1c(=O)ccc2cc(S(=O)(=O)Nc3ccncn3)ccc21 (atropisomer, axis not shown; (P)) [Example 367, (P)-1-(2,4′-dichloro-5-methoxy-3′-methyl-4-biphenylyl)-2-oxo-N-4-pyrimidinyl-1,2-dihydro-6-quinolinesulfonamide] |  | IC50 (in-vitro PatchXpress (PX)): 3 nM
COc1nc(OCc2ccc(F)c(F)c2)c(Cl)cc1-n1c(=O)ccc2cc(S(=O)(=O)Nc3ccon3)ccc21 [Example 1217, 1-(5-chloro-6-((3,4-difluorobenzyl)oxy)-2-methoxy-3-pyridinyl)-N-3-isoxazolyl-2-oxo-1,2-dihydro-6-quinolinesulfonamide] |  | IC50: 96 nM
COc1cc(-c2cccc(F)c2)c(C)cc1-n1c(=O)ccc2cc(S(=O)(=O)Nc3ccon3)ccc21 (atropisomer, axis not shown; (M)) [Example 428, (M)-1-(3′-fluoro-5-methoxy-2-methyl-4-biphenylyl)-N-3-isoxazolyl-2-oxo-1,2-dihydro-6-quinolinesulfonamide] |  | IC50: 7590 nM
COc1cc(-c2cccc(C)c2)c(F)cc1-n1c(=O)ccc2cc(S(=O)(=O)Nc3cccnn3)ccc21 [Example 1108, 1-(2-fluoro-5-methoxy-3′-methyl-4-biphenylyl)-2-oxo-N-3-pyridazinyl-1,2-dihydro-6-quinolinesulfonamide] | 21 | 
COc1cc(C2CC2)ccc1-n1c(=O)ccc2cc(S(=O)(=O)Nc3ccon3)ccc21 (atropisomer, axis not shown; (P)) [Example 1210, (P)-1-(4-cyclopropyl-2-methoxyphenyl)-N-3-isoxazolyl-2-oxo-1,2-dihydro-6-quinolinesulfonamide] |  | IC50: 2370 nM
COc1nc(-c2cc(F)cc(Cl)c2)c(Cl)cc1-n1c(=O)ccc2cc(S(=O)(=O)Nc3ccon3)ccc21 [Example 1070, 1-(5-chloro-6-(3-chloro-5-fluorophenyl)-2-methoxy-3-pyridinyl)-N-3-isoxazolyl-2-oxo-1,2-dihydro-6-quinolinesulfonamide] | 12 | 
COc1cc(-c2cccc(F)c2)c(Cl)cc1-n1c(=O)ccc2cc(S(=O)(=O)Nc3ccon3)c(F)cc21 (atropisomer, axis not shown; (P)) [Example 545, (P)-1-(2-chloro-3′-fluoro-5-methoxy-4-biphenylyl)-7-fluoro-N-3-isoxazolyl-2-oxo-1,2-dihydro-6-quinolinesulfonamide] |  | IC50: 10 nM
COc1cc(CC2CCCCC2)c(F)cc1-n1c(=O)ccc2cc(S(=O)(=O)Nc3ncco3)ccc21 [Example 1110, 1-(4-(cyclohexylmethyl)-5-fluoro-2-methoxyphenyl)-N-1,3-oxazol-2-yl-2-oxo-1,2-dihydro-6-quinolinesulfonamide] | 52 | 
COc1cc(-c2cc(C)cnc2OC)ccc1-n1c(=O)ccc2cc(S(=O)(=O)Nc3ccon3)ccc21 [Example 1022, N-3-isoxazolyl-1-(2-methoxy-4-(2-methoxy-5-methyl-3-pyridinyl)phenyl)-2-oxo-1,2-dihydro-6-quinolinesulfonamide] | 139 | 
COc1cc(-c2cccc(Cl)c2)c(C)cc1-n1c(=O)ccc2cc(S(=O)(=O)Nc3ncccn3)ccc21 (atropisomer, axis not shown; (M)) [Example 322, (M)-1-(3′-chloro-5-methoxy-2-methyl-4-biphenylyl)-2-oxo-N-2-pyrimidinyl-1,2-dihydro-6-quinolinesulfonamide] |  | IC50: 3890 nM
COc1cc(-c2cc(F)cc(Cl)c2)c(Cl)cc1-n1c(=O)ccc2cc(S(=O)(=O)Nc3ccon3)ccc21 (atropisomer, axis not shown; (M)) [Example 462, (M)-1-(2,3′-dichloro-5′-fluoro-5-methoxy-[1,1′-biphenyl]-4-yl)-N-(isoxazol-3-yl)-2-oxo-1,2-dihydroquinoline-6-sulfonamide] |  | IC50: 193 nM
COc1cc(-c2cccc(Cl)c2F)c(F)cc1-n1c(=O)ccc2cc(S(=O)(=O)Nc3ccon3)ccc21 [Example 703, 1-(3′-chloro-2,2′-difluoro-5-methoxy-4-biphenylyl)-N-3-isoxazolyl-2-oxo-1,2-dihydro-6-quinolinesulfonamide] | 5 | 
COc1cc(-c2ccc(Cl)c(C)c2)ccc1-n1c(=O)ccc2cc(S(=O)(=O)Nc3cccnn3)ccc21 (atropisomer, axis not shown; (P)) [Example 371, (P)-1-(4′-chloro-3-methoxy-3′-methyl-4-biphenylyl)-2-oxo-N-3-pyridazinyl-1,2-dihydro-6-quinolinesulfonamide] |  | IC50 (in-vitro PatchXpress (PX)): 4360 nM
COc1ccc(-c2ccc(-n3c(=O)ccc4cc(S(=O)(=O)Nc5ccon5)ccc43)c(OC)c2)cc1Cl [Example 1026, 1-(3′-chloro-3,4′-dimethoxy-4-biphenylyl)-N-3-isoxazolyl-2-oxo-1,2-dihydro-6-quinolinesulfonamide] | 59 | 
COc1ccc(-c2ccc(Cl)c(F)c2)cc1-n1c(=O)ccc2cc(S(=O)(=O)Nc3ccon3)ccc21 [Example 874, 1-(4′-chloro-3′-fluoro-4-methoxy-3-biphenylyl)-N-3-isoxazolyl-2-oxo-1,2-dihydro-6-quinolinesulfonamide] | 33 | 
COc1cc(-c2ccc(Cl)c(C)c2)c(Cl)cc1-n1c(=O)ccc2cc(S(=O)(=O)Nc3ccncn3)ccc21 (atropisomer, axis not shown; (M)) [Example 368, (M)-1-(2,4′-dichloro-5-methoxy-3′-methyl-4-biphenylyl)-2-oxo-N-4-pyrimidinyl-1,2-dihydro-6-quinolinesulfonamide] |  | IC50 (in-vitro PatchXpress (PX)): 677 nM
COc1cc(-c2cc(F)cc(F)c2F)c(F)cc1-n1c(=O)ccc2cc(S(=O)(=O)Nc3ccon3)ccc21 (atropisomer, axis not shown; (P)) [Example 514, (P)—N-3-isoxazolyl-2-oxo-1-(2,2′,3′,5′-tetrafluoro-5-methoxy-4-biphenylyl)-1,2-dihydro-6-quinolinesulfonamide] |  | IC50 (in-vitro PatchXpress (PX)): 18 nM
COc1cc(-c2cccc(C)c2)c(F)cc1-n1c(=O)ccc2cc(S(=O)(=O)Nc3ncccn3)ccc21 [Example 1107, 1-(2-fluoro-5-methoxy-3′-methyl-4-biphenylyl)-2-oxo-N-2-pyrimidinyl-1,2-dihydro-6-quinolinesulfonamide] | 32 | 
COc1cc(-c2cccc(C(F)(F)F)c2)c(F)cc1-n1c(=O)ccc2cc(S(=O)(=O)Nc3cccnn3)ccc21 [Example 820, 1-(2-fluoro-5-methoxy-3′-(trifluoromethyl)-4-biphenylyl)-2-oxo-N-3-pyridazinyl-1,2-dihydro-6-quinolinesulfonamide] | 18 | 
COc1cc(-c2cccc(C(F)(F)F)c2)c(F)cc1-n1c(=O)ccc2cc(S(=O)(=O)Nc3ncco3)ccc21 [Example 806, 1-(2-fluoro-5-methoxy-3′-(trifluoromethyl)-4-biphenylyl)-N-1,3-oxazol-2-yl-2-oxo-1,2-dihydro-6-quinolinesulfonamide] | 28 | 
COc1cc(-c2ccc(-n3c(=O)ccc4cc(S(=O)(=O)Nc5ccon5)ccc43)c(OC)c2)ccc1Cl [Example 1027, 1-(4′-chloro-3,3′-dimethoxy-4-biphenylyl)-N-3-isoxazolyl-2-oxo-1,2-dihydro-6-quinolinesulfonamide] | 32 | 
